Measured values published in the NIST ThermoML archive (doi:10.1016/j.fluid.2017.08.016).
Several values for one entry are separate records, joined by “and”; a condition that tells them apart may be missing. Identical values can stand only once.

Conditions: for mass density: 101.33 kPa, Liquid, Vibrating tube method; for surface tension liquid-gas: Pendant drop shape

COCCOCCOC [2,5,8-trioxanonane]
Conditions | mass density | surface tension liquid-gas [mN/m]
303.15 K | 933.98 kg/m3 | –
303.16 K | 933.65 kg/m3 | 28.54
308.15 K | 928.95 kg/m3 | –
313.15 K | 923.97 kg/m3 | –
313.16 K | 923.61 kg/m3 | 27.57
318.15 K | 918.94 kg/m3 | –
323.15 K | 913.9 kg/m3 | –
323.17 K | 913.51 kg/m3 | 26.27
328.15 K | 908.84 kg/m3 | –
333.15 K | 903.76 kg/m3 and 903.38 kg/m3 | 24.98
338.15 K | 898.67 kg/m3 | –
343.15 K | 893.55 kg/m3 and 893.13 kg/m3 | 23.79
348.15 K | 888.41 kg/m3 | –
353.15 K | 883.24 kg/m3 | –
353.16 K | 882.79 kg/m3 | 22.87
358.15 K | 878.04 kg/m3 | –
363.14 K | 872.36 kg/m3 | 21.68
363.15 K | 872.81 kg/m3 | –
373.14 K | 861.79 kg/m3 | 20.53
383.16 K | 851.06 kg/m3 | 19.43
393.15 K | 840.22 kg/m3 | 18.37

CCCCC(CC)COC(C)=O (centres undefined) [2-ethylhexyl acetate]
Conditions | mass density | surface tension liquid-gas [mN/m]
303.15 K | 863.51 kg/m3 | –
303.17 K | 863.56 kg/m3 | 25.15
308.15 K | 859.15 kg/m3 | –
313.15 K | 854.77 kg/m3 | –
313.16 K | 854.84 kg/m3 | 24.23
318.15 K | 850.39 kg/m3 | –
323.15 K | 846.01 kg/m3 | –
323.16 K | 846.08 kg/m3 | 23.23
328.15 K | 841.61 kg/m3 | –
333.15 K | 837.2 kg/m3 and 837.29 kg/m3 | 22.28
338.15 K | 832.78 kg/m3 | –
343.15 K | 828.35 kg/m3 and 828.44 kg/m3 | 21.27
348.15 K | 823.91 kg/m3 | –
353.15 K | 819.45 kg/m3 | –
353.16 K | 819.54 kg/m3 | 20.22
358.15 K | 814.98 kg/m3 | –
363.15 K | 810.49 kg/m3 and 810.59 kg/m3 | 19.26
373.15 K | 801.56 kg/m3 | 18.35
383.15 K | 792.46 kg/m3 | 17.44
393.16 K | 783.27 kg/m3 | 16.59

COCCO [2-methoxyethan-1-ol]
Conditions | mass density [kg/m3] | surface tension liquid-gas [mN/m]
303.15 K | 956.73 | –
303.16 K | 956.41 | 30.06
308.15 K | 952.09 | –
313.14 K | 947.1 | 29.01
313.15 K | 947.42 | –
318.15 K | 942.72 | –
323.15 K | 937.98 | –
323.16 K | 937.62 | 27.98
328.15 K | 933.21 | –
333.14 K | 928.03 | 26.9
333.15 K | 928.39 | –
338.15 K | 923.54 | –
343.15 K | 918.64 | –
343.16 K | 918.23 | 25.88
348.15 K | 913.69 | –
353.15 K | 908.7 | –
353.16 K | 908.26 | 24.7
358.15 K | 903.65 | –
363.15 K | 898.55 | –
363.16 K | 898.09 | 23.6
373.16 K | 887.7 | 22.56
383.17 K | 877.05 | 21.58
393.17 K | 866.15 | 20.51

CCOC(=O)CCC(=O)OCC [diethyl butanedioate]
Conditions | mass density | surface tension liquid-gas [mN/m]
303.15 K | 1029.59 kg/m3 | –
303.16 K | 1029.57 kg/m3 | 30.62
308.15 K | 1024.4 kg/m3 | –
313.15 K | 1019.2 kg/m3 and 1019.2 kg/m3 | 29.55
318.15 K | 1014.01 kg/m3 | –
323.15 K | 1008.81 kg/m3 and 1008.81 kg/m3 | 28.42
328.15 K | 1003.6 kg/m3 | –
333.15 K | 998.39 kg/m3 | –
333.17 K | 998.37 kg/m3 | 27.41
338.15 K | 993.16 kg/m3 | –
343.15 K | 987.93 kg/m3 | –
343.17 K | 987.91 kg/m3 | 26.33
348.15 K | 982.7 kg/m3 | –
353.15 K | 977.45 kg/m3 | –
353.16 K | 977.44 kg/m3 | 25.12
358.15 K | 972.19 kg/m3 | –
363.15 K | 966.91 kg/m3 | –
363.16 K | 966.9 kg/m3 | 24.02
373.14 K | 956.34 kg/m3 | 22.95
383.15 K | 945.69 kg/m3 | 21.96
393.17 K | 934.96 kg/m3 | 21.03

Cc1ccccc1 [toluene]
Conditions | surface tension liquid-gas [mN/m]
303.16 K | 27.15
308.15 K | 26.51
313.15 K | 25.98
318.13 K | 25.42
323.15 K | 24.89
328.16 K | 24.34
333.14 K | 23.65
338.16 K | 23.08
343.16 K | 22.55
348.16 K | 21.98
353.15 K | 21.45
358.15 K | 20.92
363.16 K | 20.37
368.14 K | 19.86
